Peptide text beside a SMILES is read from it.
Key:
Format in all cases: cell-based
SIRT1 = SIRT1 transcription, semi-quantitative RT-PCR in human epidermal progenitors; conditions: 72 h
Protocol: (§1) Human neonatal epidermal progenitors (Thermo Fisher Scientific, NY) were seeded in 6-well plates at a density of 2×10^5 cells/well. Each well received 2 ml of Epilife media containing 60 μM calcium chloride (Thermo Fisher Scientific, NY). Plates were incubated in a humidified chamber at 37 degrees Celsius and 5 percent CO2. Twenty-four hours later, cells were treated with various concentrations of oxyresveratrol or decapeptide-12 dissolved in PBS containing 5 percent DMSO. Control wells received vehicle only (5 percent DMSO and PBS). Final concentration of DMSO in each well was 0.05 percent.
(§2) After a 72 hour incubation period, cells were trypsinized and total RNA extracted, using RNeasy kit (Qiagen, Valencia, Calif.) according to the manufacturer's protocol.
(§3) RNA concentration was determined using nanodrop (Thermo fisher scientific, NY). Two μg of total RNA were used to synthesize cDNA using oligo dT primers and TaqMan reverse transcription reagents (Thermo fisher scientific, NY). The reaction was carried out in DNA Engine Peltier Thermal Cycler (Bio-Rad, Hercules, Calif.). The annealing temperature was 25 degrees Celsius for 10 minutes, followed by first strand synthesis at 48 degrees Celsius for 1 hour, and heat inactivation at 95 degrees Celsius for 5 minutes.
(§4) The SIRT1-7 primers (table 1) were designed using Primer3. The semi-quantitative PCR reactions were performed on a DNA Engine Peltier Thermo Cycler (Bio-Rad, Hercules, Calif.). PCR was carried under the following conditions: denaturation at 94 degrees Celsius for 2 minutes and primer extension at 54 degrees Celsius for 30 seconds in 34 cycles for SIRT 1-7 and the housekeeping gene 18S.
(§5) Samples were run and resolved on a 1.5 percent agarose gel containing 0.5 μg/ml of ethidium bromide and imaged using the FluorChem HD2 Imaging System (Protein simple, San Jose, Calif.). Densitometry analysis was carried out using the AlphaEase FC software (Protein simple, San Jose, Calif.). Intensity ratios were calculated as the intensity value for each gene divided by the intensity value of the internal control gene 18S.
(§6) The effect of the decapeptides P4, P4A, P4B, and P4C upon the transcription levels of sirtuins 1-7 was evaluated. Table 4 summarizes transcription levels for all four decapeptides with the corresponding genes, at tested concentrations of: 10, 30, 50, 100, and 300 (all in μM).

SIRT2 = SIRT2 transcription, semi-quantitative RT-PCR in human epidermal progenitors; conditions: 72 h
Protocol: as §1, §2, §3, §4, §5, §6

SIRT4 = SIRT4 transcription, semi-quantitative RT-PCR in human epidermal progenitors; conditions: 72 h
Protocol: as §1, §2, §3, §4, §5, §6

SIRT5 = SIRT5 transcription, semi-quantitative RT-PCR in human epidermal progenitors; conditions: 72 h
Protocol: as §1, §2, §3, §4, §5, §6

SIRT6 = SIRT6 transcription, semi-quantitative RT-PCR in human epidermal progenitors; conditions: 72 h
Protocol: as §1, §2, §3, §4, §5, §6

SIRT7 = SIRT7 transcription, semi-quantitative RT-PCR in human epidermal progenitors; conditions: 72 h
Protocol: as §1, §2, §3, §4, §5, §6

in vitro = conditions: human, human epidermal progenitors
Protocol: Proliferation rates were determined using a TACS® MTT Cell Proliferation Kit (R&D systems, Minneapolis, Minn.). Cells were seeded at 2.5×10^4/well in 96-well plates in a humidified atmosphere with 5 percent CO2 at 37 degrees Celsius. Twenty-four hours later, decapeptide-12 or oxyresveratrol were added to the corresponding wells at varying concentrations (0, 3, 10, 30, 100, 300, and 1000 μM), and cultures were then incubated for 72 hours. The remainder of the procedure was performed following the manufacturer's protocol.
Proliferation rates for three human cell lines (epidermal progenitors, melanoblasts, and fibroblasts) were determined using a TACS® MTT Cell Proliferation Kit. Cells were seeded at 2.5×10^4/well in 96-well plates in a humidified atmosphere with 5 percent CO2 at 37 degrees Celsius. Twenty-four hours later, the decapeptides were added to the corresponding wells at varying concentrations and incubated for 72 hours. The remainder of the procedure was performed following the manufacturer's protocol.

[1] = Trypan blue cell viability, 7 days, melanoblasts; conditions: human, relative to control, read-out: melanoblast viability after 7 days
Protocol: (§7) The effect of each of the decapeptides upon cell viability was also tested. In particular, cells were incubated with the decapeptide at various concentrations and then counted for viability relative to the control (untreated cells) using trypan blue. Cytotoxicity was measured according to the following formula:
(§8) [1−(# of cells in control−# of live cells in test sample)/# of cells in control]×100 percent.

[2] = Trypan blue cell viability, 7 days, fibroblasts; conditions: human, relative to control, read-out: fibroblast viability after 7 days
Protocol: as §7, §8

CCCCCCCCCCCCCCCC(=O)N[C@@H](Cc1ccc(O)cc1)C(=O)N[C@@H](CCCNC(=N)N)C(=O)N[C@@H](CO)C(=O)N[C@@H](CCCNC(=N)N)C(=O)N[C@@H](CCCCN)C(=O)N[C@H](Cc1ccc(O)cc1)C(=O)N[C@@H](CO)C(=O)N[C@@H](CO)C(=O)N[C@@H](Cc1c[nH]c2ccccc12)C(=O)N[C@@H](Cc1ccc(O)cc1)C(N)=O [P4B, Palmitoyl-YRSRK[*Y]SSWY-amide] (HELM PEPTIDE1{[CCCCCCCCCCCCCCCC(=O)[*:2]].Y.R.S.R.K.[dY].S.S.W.Y.[am]}$$$$V2.0)
SIRT1 transcription increase relative to control (SIRT1; 10 μM): 10 ± 4%
SIRT1 transcription increase relative to control (SIRT1; 30 μM): 10 ± 3%
SIRT1 transcription increase relative to control (SIRT1; 50 μM): 48 ± 3%
SIRT1 transcription increase relative to control (SIRT1; 100 μM): 135 ± 12%
SIRT1 transcription increase relative to control (SIRT1; 300 μM): 155 ± 3%
SIRT2 transcription increase relative to control (SIRT2; 10 μM): 5 ± 1%
SIRT2 transcription increase relative to control (SIRT2; 30 μM): 8 ± 3%
SIRT2 transcription increase relative to control (SIRT2; 50 μM): 17 ± 6%
SIRT2 transcription increase relative to control (SIRT2; 100 μM): 52 ± 4%
SIRT2 transcription increase relative to control (SIRT2; 300 μM): 40 ± 4%
SIRT4 transcription increase relative to control (SIRT4; 10 μM): 9 ± 1%
SIRT4 transcription increase relative to control (SIRT4; 30 μM): 10 ± 1%
SIRT4 transcription increase relative to control (SIRT4; 50 μM): 17 ± 1%
SIRT4 transcription increase relative to control (SIRT4; 100 μM): 86 ± 6%
SIRT4 transcription increase relative to control (SIRT4; 300 μM): 49 ± 4%
SIRT5 transcription increase relative to control (SIRT5; 10 μM): 2.00%
SIRT5 transcription increase relative to control (SIRT5; 30 μM): 1.00%
SIRT5 transcription increase relative to control (SIRT5; 50 μM): 1.00%
SIRT5 transcription increase relative to control (SIRT5; 100 μM): 35 ± 3%
SIRT5 transcription increase relative to control (SIRT5; 300 μM): 29 ± 5%
SIRT6 transcription increase relative to control (SIRT6; 10 μM): 21 ± 5%
SIRT6 transcription increase relative to control (SIRT6; 30 μM): 22 ± 4%
SIRT6 transcription increase relative to control (SIRT6; 50 μM): 10 ± 4%
SIRT6 transcription increase relative to control (SIRT6; 100 μM): 107 ± 2%
SIRT6 transcription increase relative to control (SIRT6; 300 μM): 81 ± 4%
SIRT7 transcription increase relative to control (SIRT7; 10 μM): 20 ± 6%
SIRT7 transcription increase relative to control (SIRT7; 30 μM): 23 ± 5%
SIRT7 transcription increase relative to control (SIRT7; 50 μM): 54 ± 7%
SIRT7 transcription increase relative to control (SIRT7; 100 μM): 61 ± 7%
SIRT7 transcription increase relative to control (SIRT7; 300 μM): 103 ± 8%
viability at 72 h, 3 µM (in vitro): 99 ± 1%
viability at 72 h, 10 µM (in vitro): 99 ± 1%
viability at 72 h, 30 µM (in vitro): 98 ± 1%
viability at 72 h, 50 µM (in vitro): 98 ± 1%
viability at 72 h, 100 µM (in vitro): 97 ± 1%
viability at 72 h, 300 µM (in vitro): 97 ± 1%
viability at 72 h, 500 µM (in vitro): 95 ± 2%
viability at 72 h, 1000 µM (in vitro): 94 ± 2%
viability at 168 h, 3 µM [1]: 100%
viability at 168 h, 10 µM [1]: 98.5 ± 1%
viability at 168 h, 30 µM [1]: 97.8 ± 3%
viability at 168 h, 50 µM [1]: 97.2 ± 2%
viability at 168 h, 100 µM [1]: 96.3 ± 2%
viability at 168 h, 300 µM [1]: 95.6 ± 2%
viability at 168 h, 500 µM [1]: 94.6 ± 2%
viability at 168 h, 1000 µM [1]: 93.8 ± 2%
viability at 168 h, 3 µM [2]: 100%
viability at 168 h, 10 µM [2]: 98.8 ± 1%
viability at 168 h, 30 µM [2]: 98.3 ± 1%
viability at 168 h, 50 µM [2]: 97.6 ± 1%
viability at 168 h, 100 µM [2]: 97.3 ± 2%
viability at 168 h, 300 µM [2]: 96.5 ± 2%
viability at 168 h, 500 µM [2]: 95.3 ± 3%
viability at 168 h, 1000 µM [2]: 94.2 ± 3%

CCCCCCCCCCCCCCCC(=O)N[C@@H](Cc1ccc(O)cc1)C(=O)N[C@@H](CCCNC(=N)N)C(=O)N[C@@H](CO)C(=O)N[C@@H](CCCNC(=N)N)C(=O)N[C@@H](CCCCN)C(=O)N[C@@H](Cc1ccc(O)cc1)C(=O)N[C@@H](CO)C(=O)N[C@@H](CO)C(=O)N[C@@H](Cc1c[nH]c2ccccc12)C(=O)N[C@@H](Cc1ccc(O)cc1)C(N)=O [P4A, Palmitoyl-YRSRKYSSWY-amide] (HELM PEPTIDE1{[CCCCCCCCCCCCCCCC(=O)[*:2]].Y.R.S.R.K.Y.S.S.W.Y.[am]}$$$$V2.0)
SIRT1 transcription increase relative to control (SIRT1; 10 μM): 18 ± 2%
SIRT1 transcription increase relative to control (SIRT1; 30 μM): 19 ± 1%
SIRT1 transcription increase relative to control (SIRT1; 50 μM): 42 ± 5%
SIRT1 transcription increase relative to control (SIRT1; 100 μM): 144 ± 5%
SIRT1 transcription increase relative to control (SIRT1; 300 μM): 184 ± 2%
SIRT2 transcription increase relative to control (SIRT2; 10 μM): 14 ± 1%
SIRT2 transcription increase relative to control (SIRT2; 30 μM): 15 ± 1%
SIRT2 transcription increase relative to control (SIRT2; 50 μM): 6 ± 3%
SIRT2 transcription increase relative to control (SIRT2; 100 μM): 48 ± 1%
SIRT2 transcription increase relative to control (SIRT2; 300 μM): 30 ± 5%
SIRT4 transcription increase relative to control (SIRT4; 10 μM): 16 ± 1%
SIRT4 transcription increase relative to control (SIRT4; 30 μM): 16 ± 1%
SIRT4 transcription increase relative to control (SIRT4; 50 μM): 9 ± 4%
SIRT4 transcription increase relative to control (SIRT4; 100 μM): 98 ± 12%
SIRT4 transcription increase relative to control (SIRT4; 300 μM): 65 ± 1%
SIRT5 transcription increase relative to control (SIRT5; 10 μM): 13 ± 2%
SIRT5 transcription increase relative to control (SIRT5; 30 μM): 12 ± 2%
SIRT5 transcription increase relative to control (SIRT5; 50 μM): 10 ± 3%
SIRT5 transcription increase relative to control (SIRT5; 100 μM): 47 ± 7%
SIRT5 transcription increase relative to control (SIRT5; 300 μM): 29 ± 4%
SIRT6 transcription increase relative to control (SIRT6; 10 μM): 24 ± 5%
SIRT6 transcription increase relative to control (SIRT6; 30 μM): 25 ± 5%
SIRT6 transcription increase relative to control (SIRT6; 50 μM): 33 ± 7%
SIRT6 transcription increase relative to control (SIRT6; 100 μM): 135 ± 10%
SIRT6 transcription increase relative to control (SIRT6; 300 μM): 85 ± 5%
SIRT7 transcription increase relative to control (SIRT7; 10 μM): 29 ± 6%
SIRT7 transcription increase relative to control (SIRT7; 30 μM): 33 ± 5%
SIRT7 transcription increase relative to control (SIRT7; 50 μM): 52 ± 4%
SIRT7 transcription increase relative to control (SIRT7; 100 μM): 87 ± 6%
SIRT7 transcription increase relative to control (SIRT7; 300 μM): 113 ± 2%
viability at 72 h, 3 µM (in vitro): 99 ± 1%
viability at 72 h, 10 µM (in vitro): 99 ± 1%
viability at 72 h, 30 µM (in vitro): 98 ± 1%
viability at 72 h, 50 µM (in vitro): 97 ± 1%
viability at 72 h, 100 µM (in vitro): 97 ± 2%
viability at 72 h, 300 µM (in vitro): 96 ± 2%
viability at 72 h, 500 µM (in vitro): 96 ± 2%
viability at 72 h, 1000 µM (in vitro): 94 ± 2%
viability at 168 h, 3 µM [1]: 100%
viability at 168 h, 10 µM [1]: 99 ± 1%
viability at 168 h, 30 µM [1]: 98.5 ± 1%
viability at 168 h, 50 µM [1]: 98 ± 1%
viability at 168 h, 100 µM [1]: 97 ± 2%
viability at 168 h, 300 µM [1]: 96.2 ± 2%
viability at 168 h, 500 µM [1]: 95.6 ± 2%
viability at 168 h, 1000 µM [1]: 94.8 ± 2%
viability at 168 h, 3 µM [2]: 100%
viability at 168 h, 10 µM [2]: 98.9 ± 1%
viability at 168 h, 30 µM [2]: 98.4 ± 1%
viability at 168 h, 50 µM [2]: 98 ± 1%
viability at 168 h, 100 µM [2]: 97.4 ± 2%
viability at 168 h, 300 µM [2]: 96.6 ± 2%
viability at 168 h, 500 µM [2]: 95.5 ± 2%
viability at 168 h, 1000 µM [2]: 94.3 ± 2%

Source: patent publication US20180296456A1, “Decapeptide-12 Modulation of Sirtuin Gene Expression in Epidermal Keratinocyte Progenitors” (Escape Therapeutics, Inc., priority 2017, published 2018)
